In brackets after ≈: the same amount, converted by molar mass.
System: Histophilus somni
Experiment: minimum inhibitory concentration (MIC)
Description: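 Broth microdilution MIC (Sensititre BOPO7F bovine plate, CLSI methods) of 19 antimicrobials against field isolates of P. multocida, M. haemolytica, H. somni (deep nasopharyngeal swabs) and E. coli, Enterococcus spp. (rectal swabs) from weaned dairy heifers. Incubation 16-24 h at 35 C. MIC is the lowest concentration preventing visible growth. Values with <= or > lie at the tested range limits. Trimethoprim-sulfamethoxazole is given as the trimethoprim component of a 1:19 mixture.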

With CC[C@H]1OC(=O)C[C@@H](O)[C@H](C)[C@@H](O[C@@H]2O[C@H](C)[C@@H](O)[C@H](N(C)C)[C@H]2O)[C@@H](CCN2CCCCC2)C[C@@H](C)C(=O)/C=C/C(C)=C/[C@@H]1CN1CCCCC1 [Tildipirosin] the minimum inhibitory concentration (isolate (source animal id): 110) was 4 µg/mL (≈ 5.45 µM), the minimum inhibitory concentration (isolate (source animal id): 117) was no more than 1 µg/mL and the minimum inhibitory concentration (isolate (source animal id): 121) was no more than 1 µg/mL. It also gave a minimum inhibitory concentration (isolate (source animal id): 123) of 2 µg/mL (≈ 2.72 µM), a minimum inhibitory concentration (isolate (source animal id): 124) of 2 µg/mL (≈ 2.72 µM) and a minimum inhibitory concentration (isolate (source animal id): 127) of no more than 1 µg/mL. For the same compound, the minimum inhibitory concentration (isolate (source animal id): 128) was 2 µg/mL (≈ 2.72 µM), the minimum inhibitory concentration (isolate (source animal id): 130) was 2 µg/mL (≈ 2.72 µM) and the minimum inhibitory concentration (isolate (source animal id): 132) was 4 µg/mL (≈ 5.45 µM). It also gave a minimum inhibitory concentration (isolate (source animal id): 135) of 2 µg/mL (≈ 2.72 µM), a minimum inhibitory concentration (isolate (source animal id): 140) of 2 µg/mL (≈ 2.72 µM) and a minimum inhibitory concentration (isolate (source animal id): 141) of 2 µg/mL (≈ 2.72 µM). It also gave a minimum inhibitory concentration (isolate (source animal id): 142) greater than 16 µg/mL, a minimum inhibitory concentration (isolate (source animal id): 144) of 4 µg/mL (≈ 5.45 µM) and a minimum inhibitory concentration (isolate (source animal id): 146) of 4 µg/mL (≈ 5.45 µM). For the same compound, the minimum inhibitory concentration (isolate (source animal id): 147) was greater than 16 µg/mL, the minimum inhibitory concentration (isolate (source animal id): 151) was 2 µg/mL (≈ 2.72 µM) and the minimum inhibitory concentration (isolate (source animal id): 153) was 8 µg/mL (≈ 10.9 µM). It also gave a minimum inhibitory concentration (isolate (source animal id): 154) greater than 16 µg/mL, a minimum inhibitory concentration (isolate (source animal id): 156) greater than 16 µg/mL and a minimum inhibitory concentration (isolate (source animal id): 157) of 8 µg/mL (≈ 10.9 µM). It also gave a minimum inhibitory concentration (isolate (source animal id): 176) of 2 µg/mL (≈ 2.72 µM), a minimum inhibitory concentration (isolate (source animal id): 183) of 2 µg/mL (≈ 2.72 µM) and a minimum inhibitory concentration (isolate (source animal id): 186) of 4 µg/mL (≈ 5.45 µM). It also gave a minimum inhibitory concentration (isolate (source animal id): 196) of 4 µg/mL (≈ 5.45 µM), a minimum inhibitory concentration (isolate (source animal id): 198) of 4 µg/mL (≈ 5.45 µM) and a minimum inhibitory concentration (isolate (source animal id): 200) of 8 µg/mL (≈ 10.9 µM). It also gave a minimum inhibitory concentration (isolate (source animal id): 206) of 8 µg/mL (≈ 10.9 µM), a minimum inhibitory concentration (isolate (source animal id): 208) of 8 µg/mL (≈ 10.9 µM) and a minimum inhibitory concentration (isolate (source animal id): 210) of 2 µg/mL (≈ 2.72 µM). The minimum inhibitory concentration (isolate (source animal id): 212) was no more than 1 µg/mL, the minimum inhibitory concentration (isolate (source animal id): 215) was 4 µg/mL (≈ 5.45 µM) and the minimum inhibitory concentration (isolate (source animal id): 216) was 8 µg/mL (≈ 10.9 µM). For the same compound, the minimum inhibitory concentration (isolate (source animal id): 218) was 4 µg/mL (≈ 5.45 µM), the minimum inhibitory concentration (isolate (source animal id): 219) was 8 µg/mL (≈ 10.9 µM) and the minimum inhibitory concentration (isolate (source animal id): 224) was 8 µg/mL (≈ 10.9 µM). The minimum inhibitory concentration (isolate (source animal id): 228) was 4 µg/mL (≈ 5.45 µM), the minimum inhibitory concentration (isolate (source animal id): 230) was no more than 1 µg/mL and the minimum inhibitory concentration (isolate (source animal id): 233) was no more than 1 µg/mL. For the same compound, the minimum inhibitory concentration (isolate (source animal id): 238) was no more than 1 µg/mL, the minimum inhibitory concentration (isolate (source animal id): 239) was 2 µg/mL (≈ 2.72 µM) and the minimum inhibitory concentration (isolate (source animal id): 241) was 2 µg/mL (≈ 2.72 µM). For the same compound, the minimum inhibitory concentration (isolate (source animal id): 242) was 2 µg/mL (≈ 2.72 µM), the minimum inhibitory concentration (isolate (source animal id): 243) was no more than 1 µg/mL and the minimum inhibitory concentration (isolate (source animal id): 245) was no more than 1 µg/mL. It also gave a minimum inhibitory concentration (isolate (source animal id): 246) of 4 µg/mL (≈ 5.45 µM), a minimum inhibitory concentration (isolate (source animal id): 247) of 2 µg/mL (≈ 2.72 µM) and a minimum inhibitory concentration (isolate (source animal id): 248) of no more than 1 µg/mL. For the same compound, the minimum inhibitory concentration (isolate (source animal id): 250) was 2 µg/mL (≈ 2.72 µM), the minimum inhibitory concentration (isolate (source animal id): 251) was 4 µg/mL (≈ 5.45 µM) and the minimum inhibitory concentration (isolate (source animal id): 252) was 4 µg/mL (≈ 5.45 µM). It also gave a minimum inhibitory concentration (isolate (source animal id): 254) of 4 µg/mL (≈ 5.45 µM), a minimum inhibitory concentration (isolate (source animal id): 258) of 2 µg/mL (≈ 2.72 µM) and a minimum inhibitory concentration (isolate (source animal id): 259) of 2 µg/mL (≈ 2.72 µM). For the same compound, the minimum inhibitory concentration (isolate (source animal id): 262) was no more than 1 µg/mL, the minimum inhibitory concentration (isolate (source animal id): 264) was no more than 1 µg/mL and the minimum inhibitory concentration (isolate (source animal id): 265) was 2 µg/mL (≈ 2.72 µM). It also gave a minimum inhibitory concentration (isolate (source animal id): 266) of 2 µg/mL (≈ 2.72 µM), a minimum inhibitory concentration (isolate (source animal id): 267) of 2 µg/mL (≈ 2.72 µM) and a minimum inhibitory concentration (isolate (source animal id): 269) of 2 µg/mL (≈ 2.72 µM). It also gave a minimum inhibitory concentration (isolate (source animal id): 271) of 2 µg/mL (≈ 2.72 µM), a minimum inhibitory concentration (isolate (source animal id): 272) of no more than 1 µg/mL and a minimum inhibitory concentration (isolate (source animal id): 274) of no more than 1 µg/mL. For the same compound, the minimum inhibitory concentration (isolate (source animal id): 276) was no more than 1 µg/mL, the minimum inhibitory concentration (isolate (source animal id): 278) was 2 µg/mL (≈ 2.72 µM) and the minimum inhibitory concentration (isolate (source animal id): 280) was no more than 1 µg/mL. The minimum inhibitory concentration (isolate (source animal id): 281) was 4 µg/mL (≈ 5.45 µM), the minimum inhibitory concentration (isolate (source animal id): 283) was 2 µg/mL (≈ 2.72 µM) and the minimum inhibitory concentration (isolate (source animal id): 288) was 4 µg/mL (≈ 5.45 µM). It also gave a minimum inhibitory concentration (isolate (source animal id): 291) of 2 µg/mL (≈ 2.72 µM), a minimum inhibitory concentration (isolate (source animal id): 292) of 4 µg/mL (≈ 5.45 µM) and a minimum inhibitory concentration (isolate (source animal id): 296) of 2 µg/mL (≈ 2.72 µM). It also gave a minimum inhibitory concentration (isolate (source animal id): 306) of 8 µg/mL (≈ 10.9 µM), a minimum inhibitory concentration (isolate (source animal id): 336) of 8 µg/mL (≈ 10.9 µM) and a minimum inhibitory concentration (isolate (source animal id): 337) of 8 µg/mL (≈ 10.9 µM). For the same compound, the minimum inhibitory concentration (isolate (source animal id): 341) was 4 µg/mL (≈ 5.45 µM).

Source: the supplement of paper PMC8612539
